In patent US4985434A, “7-substituted derivatives of 2-amino-3H,5H-pyrrolo(3,2-d)pyrimidin-4-ones and pharamceutical uses and compositions containing the same” (Biocryst, Inc., priority 1989, dated 1991):
Like-named read-outs stand apart in the source and are kept apart here. Each block holds one compound with its values, some of them ahead of it.

Tests used:
[1] = target: T1, purine nucleoside phosphorylase (PNP) (Bos taurus, UniProt P55859); experiment: PNP enzyme assay, radiochemical formation of [14C]-hypoxanthine from [14C]-inosine, calf spleen enzyme; format: biochemical; settings: for enzyme-inhibition activity: tested as in Example 8
T1 construct: using calf spleen as the enzyme source; from tissue; host or cells: calf spleen
T1 sequence (P55859 1-289): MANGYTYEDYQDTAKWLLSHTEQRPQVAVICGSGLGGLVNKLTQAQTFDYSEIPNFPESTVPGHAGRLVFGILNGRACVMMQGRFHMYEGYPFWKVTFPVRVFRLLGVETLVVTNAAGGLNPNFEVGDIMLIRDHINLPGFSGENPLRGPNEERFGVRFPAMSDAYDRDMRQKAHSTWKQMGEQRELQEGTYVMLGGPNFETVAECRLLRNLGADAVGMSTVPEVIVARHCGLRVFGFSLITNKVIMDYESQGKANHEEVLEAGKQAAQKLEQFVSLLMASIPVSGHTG

[2] = system: plasma inosine; experiment: plasma inosine in Lewis Rats after intraperitoneal injection (HPLC); format: in vivo; settings: 30 mg (IA), twice per day, 10% DMSO aqueous carrier, vs vehicle controls, other compounds per procedure of Example 16
Protocol: A pharmaceutical composition for intraperitoneal injection is prepared for testing the compound (IA). An intraperitoneal injection solution containing the compound (IA) is dissolved in an aqueous carrier that contains ten percent DMSO.
The compound (IA) is intraperitoneally injected into Lewis Rats via the test composition of Example 15 to provide 30 mg of the compound (IA), with an injection given twice per day. Controls are used, which receive only the vehicle. At specific times after administration, the animals are sacrificed and plasma samples are prepared. The plasma is extracted with cold 0.5N HClO4 and neutralized with solid NH4 HCO3. After removal of perchlorate salts, the extract is subjected to HPLC on a reversed phase column (Spherisorb ODSI).
Compounds prepared as in Examples 10-14 are each made into a pharmaceutical formulation in accordance with the preparation of Example 15 and the resultant injectable solutions are tested in accordance with the procedure of Example 16.

Structure (SMILES): Nc1nc2c(C3C=CCCC3)c[nH]c2c(=O)[nH]1 (centres unmarked) [IB, 2-amino-7-(2-cyclohexenyl)-3H, 5H-pyrrolo[3,2-d]pyrimidin-4-one]
enzyme-inhibition activity ([1]; calf spleen PNP): significant enzyme-inhibition activity

IC50 [1]: 145 µM
IC50 ([1]; 1 mM phosphate, calf spleen PNP, read-out: IC50): 1.3 µM
Structure (SMILES): Nc1nc2c(C3CCCCC3)c[nH]c2c(=O)[nH]1 [ID, 2-amino-7-(cyclohexyl)-3H,5H-pyrrolo[3,2-d]-pyrimidin-4-one]

Structure (SMILES): Nc1nc2c(C3CC=CCC3)c[nH]c2c(=O)[nH]1 (centres unmarked) [IC, 2-amino-7-(3-cyclohexenyl)-3H, 5H-pyrrolo[3,2-d]-pyrimidin-4-one]
enzyme-inhibition activity ([1]; calf spleen PNP): significant enzyme-inhibition activity

Structure (SMILES): Nc1nc2c(C3=CCCCC3)c[nH]c2c(=O)[nH]1 [IA, 2-amino-7-(1-cyclohexenyl)-3H,5H-pyrrolo [3,2-d]pyrimidin-4-one]
increase in plasma inosine [2]: significant increase in plasma inosine
